This is an account of results in ChEMBL document CHEMBL1158003, “Discorhabdin P, a new enzyme inhibitor from a deep-water Caribbean sponge of the genus Batzella” (J Nat Prod, 1999).

In assay [1] the test system is A549. Put plainly: Cytotoxicity against human A549 cells. It is filed as functional, cell-based.
The nature of assay [2]: Inhibition of bovine brain calcineurin phosphatase activity. Set-up: species or system Bos taurus.
Assay [3] has as its system P388. Put plainly: Cytotoxicity against mouse P388 cells. It counts as functional, cell-based.
Assay [4] deals with T1, Caspase-3 (Homo sapiens) (UniProt P42574).
T1 sequence (whole entry): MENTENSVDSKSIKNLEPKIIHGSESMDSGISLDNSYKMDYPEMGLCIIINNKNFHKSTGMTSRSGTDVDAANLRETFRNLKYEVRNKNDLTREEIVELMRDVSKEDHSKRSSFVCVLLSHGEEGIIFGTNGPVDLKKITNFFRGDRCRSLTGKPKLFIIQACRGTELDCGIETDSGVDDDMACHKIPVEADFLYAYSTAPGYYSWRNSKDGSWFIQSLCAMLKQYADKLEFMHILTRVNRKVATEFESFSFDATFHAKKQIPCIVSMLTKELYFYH
Put plainly: Inhibition of CPP32 peptidase activity at 5 ug/mL.

The species entered for assay [5] is Bos taurus. As to the kind of experiment: Inhibition of bovine brain calcineurin phosphatase activity at 5 ug/mL.
The target of assay [6] is T1, Caspase-3 (Homo sapiens). As to the kind of experiment: Inhibition of CPP32 peptidase activity at 50 nM.

≈ marks a conversion by molar mass, not a printed value. Calls of active or inactive are those of the source. The rule behind the calls is not given here.

Turning to `Cn1cc2c3c1C(=O)C1=C(C3=NCC2)C2(C=C(Br)C(=O)C(Br)=C2)CCN1` [DISCORHABDIN], the IC50 in assay [1] was 0.41 µg/mL (≈ 0.859 µM); in assay [2], 0.55 µg/mL (≈ 1.15 µM); in assay [3], 0.025 µg/mL (≈ 0.0524 µM).

As for `O=C1C(Br)=CC2(C=C1Br)CCNC1=C2C2=NCCc3c[nH]c(c32)C1=O`, the result in assay [4] and in assay [5] was inactive.

With `CC(C)[C@H](NC(=O)[C@H](CCC(=O)O)NC(=O)[C@@H](N)CC(=O)O)C(=O)N[C@H](C=O)CC(=O)O`, in assay [6], the inhibition was found to be 90%.

In general, IC50 refers to the concentration that gives 50% inhibition. For orientation: inhibition means the change of the read-out against control, counted positive when it falls.
